The values below come from patent US20210395249A1, “NEW ALKOXYAMINOPYRIDINE DERIVATIVES FOR TREATING PAIN AND PAIN RELATED CONDITIONS” (ESTEVE PHARMACEUTICALS, S.A., priority 2018, published 2021).

In assay [1] the target is Human α2δ-1 subunit of Cav2.2 calcium channel (Homo sapiens, UniProt P54289). Put plainly: Binding assay to human α2δ-1 subunit of Cav2.2 calcium channel ([3H]-Gabapentin). As to conditions: human α2δ-1 enriched membranes, [3H]-Gabapentin 15 nM; read-out: Ki(nM) alpha2delta Hum. As to the method: Binding Assay to Human α2δ-1 Subunit of Cav2.2 Calcium Channel
Human α2δ-1 enriched membranes (2.5 μg) were incubated with 15 nM of radiolabeled [3H]-Gabapentin in assay buffer containing Hepes-KOH 10 mM, pH 7.4. NSB (non-specific binding) was measured by adding 10 μM pregabalin. The binding of the test compound was measured at either one concentration (% inhibition at 1 or 10 μM) or five different concentrations to determine affinity values (Ki). After 60 min incubation at 27° C., binding reaction was terminated by filtering through Multiscreen GF/C (Millipore) presoaked in 0.5% polyethyleneimine in Vacuum Manifold Station, followed by 3 washes with ice-cold filtration buffer containing 50 mM Tris-HCl, pH 7.4. Filter plates were dried at 60° C. for 1 hour and 30 μl of scintillation cocktail were added to each well before radioactivity reading. Readings were performed in a Trilux 1460 Microbeta radioactive counter (Perkin Elmer).

For assay [2], the target named is Human norepinephrine transporter (NET) (Homo sapiens, UniProt P23975). The assay can be described thus: Binding assay to human norepinephrine transporter (NET) ([3H]-Nisoxetin). The settings on record: human NET enriched membranes, [3H]-Nisoxetin 5 nM; read-out: Ki(nM) NET Hum. As to the method:
Binding Assay to Human Norepinephrine Transporter (NET)
Human norepinephrine transporter (NET) enriched membranes (5 μg) were incubated with 5 nM of radiolabeled [3H]-Nisoxetin in assay buffer containing 50 mM Tris-HCl, 120 mM NaCl, 5 mM KCl, pH 7.4. NSB (non specific binding) was measured by adding 10 μM of desipramine. The binding of the test compound was measured at either one concentration (% inhibition at 1 or 10 μM) or five different concentrations to determine affinity values (Ki). After 60 min incubation at 4° C., binding reaction was terminated by filtering through Multiscreen GF/C (Millipore) presoaked in 0.5% polyethyleneimine in Vacuum Manifold Station, followed by 3 washes with ice-cold filtration buffer containing 50 mM Tris-HCl, 0.9% NaCl, pH 7.4. Filter plates were dried at 60° C. for 1 hour and 30 μl of scintillation cocktail were added to each well before radioactivity reading. Readings were performed in a Trilux 1450 Microbeta radioactive counter (Perkin Elmer).

Molecules are shown by their SMILES. Bounds are passed on as bounds.

Sequence of Human α2δ-1 subunit of Cav2.2 calcium channel (P54289 25-1103): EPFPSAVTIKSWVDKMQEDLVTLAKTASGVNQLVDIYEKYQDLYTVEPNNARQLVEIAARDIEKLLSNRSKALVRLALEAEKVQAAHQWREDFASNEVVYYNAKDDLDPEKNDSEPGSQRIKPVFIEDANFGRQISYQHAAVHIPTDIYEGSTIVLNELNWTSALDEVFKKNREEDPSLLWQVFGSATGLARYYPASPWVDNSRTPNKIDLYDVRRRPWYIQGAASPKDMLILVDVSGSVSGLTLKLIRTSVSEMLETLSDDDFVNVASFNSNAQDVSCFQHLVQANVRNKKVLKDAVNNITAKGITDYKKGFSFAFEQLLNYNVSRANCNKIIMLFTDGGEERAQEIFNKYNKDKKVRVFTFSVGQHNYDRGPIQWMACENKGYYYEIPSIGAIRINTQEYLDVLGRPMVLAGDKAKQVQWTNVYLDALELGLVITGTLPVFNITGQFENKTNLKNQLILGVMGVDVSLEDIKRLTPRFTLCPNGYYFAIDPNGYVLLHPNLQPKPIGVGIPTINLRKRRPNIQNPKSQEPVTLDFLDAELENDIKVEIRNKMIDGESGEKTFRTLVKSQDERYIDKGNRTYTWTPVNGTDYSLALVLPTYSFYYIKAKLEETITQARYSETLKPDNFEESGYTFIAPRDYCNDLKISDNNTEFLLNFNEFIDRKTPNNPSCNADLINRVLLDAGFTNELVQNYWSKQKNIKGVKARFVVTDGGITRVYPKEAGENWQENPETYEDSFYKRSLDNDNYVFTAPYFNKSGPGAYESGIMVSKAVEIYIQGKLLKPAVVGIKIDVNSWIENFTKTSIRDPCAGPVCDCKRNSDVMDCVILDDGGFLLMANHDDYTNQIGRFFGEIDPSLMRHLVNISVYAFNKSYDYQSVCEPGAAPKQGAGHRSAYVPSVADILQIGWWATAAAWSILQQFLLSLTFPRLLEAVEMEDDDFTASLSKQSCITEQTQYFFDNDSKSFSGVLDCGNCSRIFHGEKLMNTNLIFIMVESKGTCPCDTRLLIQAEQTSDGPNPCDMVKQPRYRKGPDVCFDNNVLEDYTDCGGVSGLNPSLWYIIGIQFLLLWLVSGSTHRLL
Sequence of Human norepinephrine transporter (NET) (P23975 whole entry): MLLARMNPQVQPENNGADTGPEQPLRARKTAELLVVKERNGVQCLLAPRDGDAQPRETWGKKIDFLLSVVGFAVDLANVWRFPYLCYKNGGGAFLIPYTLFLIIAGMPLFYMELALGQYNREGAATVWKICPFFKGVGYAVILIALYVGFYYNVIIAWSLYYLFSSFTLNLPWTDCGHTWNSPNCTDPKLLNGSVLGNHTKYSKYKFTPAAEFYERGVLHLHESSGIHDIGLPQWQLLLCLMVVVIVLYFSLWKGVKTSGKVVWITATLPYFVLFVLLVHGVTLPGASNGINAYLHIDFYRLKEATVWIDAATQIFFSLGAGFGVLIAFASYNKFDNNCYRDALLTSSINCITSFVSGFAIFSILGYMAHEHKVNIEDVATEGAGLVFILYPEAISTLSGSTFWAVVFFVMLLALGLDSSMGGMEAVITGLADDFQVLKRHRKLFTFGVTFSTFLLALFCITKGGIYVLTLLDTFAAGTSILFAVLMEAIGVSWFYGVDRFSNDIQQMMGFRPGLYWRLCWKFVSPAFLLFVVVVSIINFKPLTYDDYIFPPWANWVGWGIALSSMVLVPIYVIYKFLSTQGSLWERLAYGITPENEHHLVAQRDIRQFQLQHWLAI

Regarding `CNCC[C@H](Oc1cnc(CN2CCN(C)c3ncccc3C2=O)c(F)c1)c1ccccc1` [Example 1, (S)-4-((3-Fluoro-5-(3-(methylamino)-1-phenylpropoxy)pyridin-2-yl)methyl)-1-methyl-1,2,3,4-tetrahydro-5H-pyrido[2,3-e][1,4]diazepin-5-one], the Ki in assay [1] and in assay [2] was below 100 nM in each case.
In the case of `CNCC[C@H](Oc1cnc(CN2CCN(C)c3ncc(F)cc3C2=O)c(F)c1)c1cccc(F)c1` [Example 2, (S)-7-fluoro-4-((3-fluoro-5-(1-(3-fluorophenyl)-3-(methylamino)propoxy)pyridin-2-yl)methyl)-1-methyl-1,2,3,4-tetrahydro-5H-pyrido[2,3-e][1,4]diazepin-5-one], the values for the Ki in assay [1] and in assay [2] were 100 to 500 nM and below 100 nM, respectively.
For the molecule `CNCC[C@H](Oc1cnc(CN2CCN(C)c3nc(N)ccc3C2=O)c(F)c1)c1cccc(F)c1` [Example 3, (S)-8-amino-4-((3-fluoro-5-(1-(3-fluorophenyl)-3-(methylamino)propoxy)pyridin-2-yl)methyl)-1-methyl-1,2,3,4-tetrahydro-5H-pyrido[2,3-e][1,4]diazepin-5-one], the Ki in assay [1] and in assay [2] was below 100 nM each time.
In the case of `CCNc1ccc2c(n1)N(C)CCN(Cc1ncc(O[C@@H](CCNC)c3cccc(F)c3)cc1F)C2=O` [Example 4, (S)-8-(ethylamino)-4-((3-fluoro-5-(1-(3-fluorophenyl)-3-(methylamino)propoxy)pyridin-2-yl)methyl)-1-methyl-1,2,3,4-tetrahydro-5H-pyrido[2,3-e][1,4]diazepin-5-one], the Ki in assay [1] and in assay [2] was below 100 nM in each case.
In the case of `CNCC[C@H](Oc1cnc(CN2CCN(C)c3ncccc3C2=O)c(Cl)c1)c1cccc(F)c1` [Example 5, (S)-4-((3-chloro-5-(1-(3-fluorophenyl)-3-(methylamino)propoxy)pyridin-2-yl)methyl)-1-methyl-1,2,3,4-tetrahydro-5H-pyrido[2,3-e][1,4]diazapin-5-one], the Ki in assay [1] and in assay [2] was below 100 nM each time.
Regarding `CNCC[C@H](Oc1cnc(CN2CCN(C)c3cnc(OC)cc3C2=O)c(F)c1)c1cccc(F)c1` [Example 6, (S)-4-((3-fluoro-5-(1-(3-fluorophenyl)-3-(methylamino)propoxy)pyridin-2-yl)methyl)-7-methoxy-1-methyl-1,2,3,4-tetrahydro-5H-pyrido[3,4-e][1,4]diazepin-5-one], the Ki in assay [1] and in assay [2] was below 100 nM each time.
For the molecule `CNCC[C@H](Oc1cnc(CN2CCN(C)c3ncccc3C2=O)c(F)c1)c1cccc(F)c1` [Example 7, (S)-4-((3-fluoro-5-(1-(3-fluorophenyl)-3-(methylamino)propoxy)pyridin-2-yl)methyl)-1-methyl-1,2,3,4-tetrahydro-5H-pyrido[2,3-e][1,4]diazepin-5-one], the results for the Ki in assay [1] and in assay [2] were 100 to 500 nM and below 100 nM, respectively.
The like results for `CNCC[C@H](Oc1cnc(CN2CCN(C)c3ncccc3C2=O)c(F)c1)c1cccs1` [Example 8, (S)-4-((3-Fluoro-5-(3-(methylamino)-1-(thiophen-2-yl)propoxy)pyridin-2-yl)methyl)-1-methyl-1,2,3,4-tetrahydro-5H-pyrido[2,3-e][1,4]diazepin-5-one] were, in that order, 100 to 500 nM and below 100 nM.
